The test system of one experiment is chimpanzee lymphoblasts. The experiment is described as follows: Neu5Gc/Neu5Ac feeding experiment, chimpanzee EBV-transformed lymphoblasts. The class given is cell-based. The conditions noted are these: chimpanzee lymphoblasts fed 3 mM Neu5Ac for 3 days. How it is done:
(§1) Cell Culture—Caco-2 cells were propagated in alpha-MEM containing GLUTAMAX™ (Invitrogen, San Diego, Calif.) and a mixture of ribonucleosides and deoxyribonucleosides (Gibco/Invitrogen, San Diego, Calif.) supplemented with 20% FCS. All the fibroblast cell lines and CHO-K1 cells were cultured in the same media supplemented respectively with 15% non-heat inactivated FCS or 10% heat inactivated FCS. Chimpanzee Fred and human […] EBV-transformed lymphoblasts were cultured in RPMI-1640 (Gibco/Invitrogen, San Diego, Calif.) supplemented with 10% heat inactivated FCS or 15% human serum. All of the cultures were maintained at 37° C., 5% CO2 atmosphere. In order to deplete any remaining Neu5Gc from FCS, the cells were split and cultured prior to Neu5Gc feeding experiments for at least 4 days in alpha-MEM supplemented with an adequate percentage of heat-inactivated premium human serum instead of FCS. The cells were then maintained under the same conditions during the whole feeding experiment. The human serum was heat inactivated at 56° C. for 30 min. before use.
(§2) Neu5Gc and ManNGc Feeding Experiment—Neu5Ac, Neu5Gc or ManNGc were dried, dissolved in the appropriate media supplemented with heat-inactivated human serum, sterilized using a Spin-X® (Corning Inc., Corning, N.Y.) and then added to the cells. The pH of the media containing Sia was adjusted to neutrality using sterilized 1M NaOH before starting the feeding experiment. Cells were cultured in the presence of up to 3 mM free Sia or ManNGc for 1 or 3 days at 37° C. […]
(§3) Fractionation of the Labeled Cells—Washed cell pellets were sonicated into 500 μL of 20 mM sodium phosphate buffer or 20 mM Tris-HCl, pH 7.5, using 4×15 second pulses of a sonicator cell disrupter, model Some Dismembrator (Fisher Scientific, Hampton, N.J.) at a probe setting of 3. […] The pellet contained <5% of the incorporated sialic acid as determined using a radioactive tracer (data not shown.) The supernatant was therefore considered as the “total homogenate” fraction. A portion (20%) of the “total homogenate” fraction was taken for protein quantification and Sia analysis by DMB derivatization and HPLC analysis (as discussed below.) The remainder was centrifuged at 100,000×g for 1 h. […] All the Sias in these fractions were released with mild acid hydrolysis if necessary and then analyzed by HPLC after DMB derivatization. Protein quantification was performed on the total homogenate, membrane and soluble protein fractions by using the BCA protein assay kit from Pierce (Rockford, Ill.) In some experiments, the resulting data obtained for the Sia bound to the membrane fraction and to the soluble proteins were pooled and presented here as a High Molecular Weight (HMW) fraction. […]

In experiment [1] the test system is human LB EBV-transformed lymphoblasts. Nature of the experiment: Neu5Gc/Neu5Ac feeding experiment, human EBV-transformed lymphoblasts. The class given is cell-based. Conditions: human lymphoblasts fed 3 mM Neu5Ac for 3 days. How it is done:
as §1, §2, §3

Another experiment deals with Caco-2 cells. Nature of the experiment: Competition of free Neu5Ac with free Neu5Gc for incorporation into Caco-2 cells. In kind it is cell-based, human. How it is done: Neu5Gc and ManNGc Feeding Experiment—Neu5Ac, Neu5Gc or ManNGc were dried, dissolved in the appropriate media supplemented with heat-inactivated human serum, sterilized using a Spin-X® (Corning Inc., Corning, N.Y.) and then added to the cells. The pH of the media containing Sia was adjusted to neutrality using sterilized 1M NaOH before starting the feeding experiment. Cells were cultured in the presence of up to 3 mM free Sia or ManNGc for 1 or 3 days at 37° C. At the end of the feeding, cells were washed with cold PBS, harvested either by scraping or with 2 mM EDTA for fibroblasts, and washed again with cold PBS prior to fractionation.
Fractionation of the Labeled Cells—Washed cell pellets were sonicated into 500 μL of 20 mM sodium phosphate buffer or 20 mM Tris-HCl, pH 7.5, using 4×15 second pulses of a sonicator cell disrupter, model Some Dismembrator (Fisher Scientific, Hampton, N.J.) at a probe setting of 3. The sonicate was centrifuged at 75×g for 15 min., and the pellet obtained consisted primarily of nuclei and unbroken cells. The pellet contained <5% of the incorporated sialic acid as determined using a radioactive tracer (data not shown.) The supernatant was therefore considered as the “total homogenate” fraction. A portion (20%) of the “total homogenate” fraction was taken for protein quantification and Sia analysis by DMB derivatization and HPLC analysis (as discussed below.) The remainder was centrifuged at 100,000×g for 1 h. The resulting pellet, called the “membrane” fraction, was then resuspended by sonication (15 sec.) in 200 μl of sodium acetate buffer, pH 5.5. The 100,000×g supernatant, called the “soluble” fraction was adjusted to 90% ethanol using absolute ice-cold ethanol, and placed overnight at −20° C. The flocculant precipitate, which represents the “soluble protein” fraction, was washed 3 times with 90% ice-cold ethanol and then resuspended in 200 μl of water. The supernatant fluid representing the cytosolic low molecular weight (LMW) fraction was dried and brought up in 100 μL with water prior to Sia analysis. All the Sias in these fractions were released with mild acid hydrolysis if necessary and then analyzed by HPLC after DMB derivatization. Protein quantification was performed on the total homogenate, membrane and soluble protein fractions by using the BCA protein assay kit from Pierce (Rockford, Ill.) In some experiments, the resulting data obtained for the Sia bound to the membrane fraction and to the soluble proteins were pooled and presented here as a High Molecular Weight (HMW) fraction.
Sialic Acid Release, DMB Derivatization and HPLC Analysis—The bound Sias from the total homogenate, membrane and soluble protein fractions were released using 2M acetic acid hydrolysis, 3 h. at 80° C. The released Sias, or free Sias, contained in the soluble LMW fraction were passed through a Microcon® YM-10 filter (Millipore, Bedford, Mass.) prior to DMB derivatization, which was done according to Hara et al., 1989. DMB-Sia derivatives from the different fractions were then analyzed by HPLC using a C18 column (Microsorb Mv-TM 100 A, Varian, Palo Alto, Calif.) Isocratic elution was achieved using 7% methanol, 8% acetonitrile in water during 50 min. at 0.9 ml/min flow. The eluant was monitored by fluorescence.
Quantification of Sias—For all HPLC chromatograms, the quantification of Sias was done by comparison with known quantities of DMB derivatized Neu5Gc and Neu5Ac used as standards and then reported in terms of pmoles of Sia. For total homogenate, membrane and cytosolic protein fractions, this number was expressed per mg of protein. Due to minor sample-to-sample variations in amounts and recoveries, the data in the Figures is presented as percent of Neu5Gc over total Sias, rather than as absolute amounts.

Setting [2] is: 3 mM Neu5Gc for 3 days in the presence of 15 mM Neu5Ac.

For the molecule `CC(=O)N[C@H]1[C@H]([C@H](O)[C@H](O)CO)OC(O)(C(=O)O)C[C@@H]1O` (stereo partly drawn) [Neu5Ac, N-acetylneuraminic acid], the “change of percentages of Neu5Gc in the different fractions” value with chimpanzee lymphoblasts was “changed only minimally”. Further, in experiment [1], the “Neu5Gc content of the fractions” value was “almost no detectable Neu5Gc”. The “Neu5Gc as percent of total Sia, TH” value turned out to be 48% in the experiment on Caco-2 cells (3 mM Neu5Gc for 3 days in the presence of 3 mM Neu5Ac) and 35% with Caco-2 cells (setting [2]). The “Neu5Gc as percent of total Sia, membrane-bound fraction” value is on record as “almost to zero” in the experiment on Caco-2 cells (setting [2]) and 29.9% with Caco-2 cells (3 mM Neu5Gc for 3 days with 3 mM Neu5Ac).

These data come from patent US20080166805A1, “Culturing human cells and tissues in an N-glycolylneuraminic acid-free environment” (The Regents of the University of California, priority 2005, published 2008).
